Results taken from ChEMBL document CHEMBL4673357, “Antimicrobial Furancarboxylic Acids from a Penicillium sp” (2020).

Experiments:
Assay type in all cases: functional
Staphylococcus aureus = test: Antibacterial activity against Staphylococcus aureus ATCC 25923 assessed as reduction in microbial growth after 18 hrs by microbroth dilution method
Candida albicans = test: Antifungal activity against Candida albicans ATCC 10231 assessed as reduction in microbial growth after 18 hrs by microbroth dilution method
Escherichia coli = test: Antibacterial activity against Escherichia coli ATCC 35218 assessed as reduction in microbial growth after 18 hrs by microbroth dilution method

| SMILES | MIC (Staphylococcus aureus) [µg/mL] | MIC (Candida albicans) [µg/mL] | MIC (Escherichia coli) [µg/mL] |
| --- | --- | --- | --- |
| CCCC1=C(C(=O)OC)C(=O)[C@@](C)(/C=C/C=C/[C@H](C)O)O1 | 2.9 | 4.4 | 2.9 |
| COC(=O)C1=C(c2ccsc2C)O[C@](C)(/C=C/CC[C@@H](C)O)C1=O | 3.5 | 7 | 3.5 |
| CCCC1=C(C(=O)OC)C(=O)[C@@](C)(/C=C/CC[C@@H](C)O)O1 | 3 | 5.9 | 3 |
| COC(=O)C1=C(c2ccsc2C)O[C@](C)(/C=C/C=C/[C@H](C)O)C1=O | 3.5 | 7 | 7 |
| CCCC1=C(C(=O)OC)C(=O)[C@@](C)(/C=C/C=C/[C@@H](C)O)O1 | 2.9 | 4.4 | 2.9 |
| COC(=O)C1=C(c2ccsc2C)O[C@](C)(/C=C/C=C/[C@@H](C)O)C1=O | 3.5 | 7 | 7 |
| COC(=O)C1=C(c2ccsc2C)O[C@](C)(/C=C/CC[C@H](C)O)C1=O | 3.5 | 7 | 3.5 |
| CCCC1=C(C(=O)OC)C(=O)[C@@](C)(/C=C/CC[C@H](C)O)O1 | 3 | 5.9 | 3 |
| C[C@@H]1[C@H](O)[C@@H](C)/C=C/C=C/C=C/C=C/C=C/C=C/C=C/[C@H](O[C@@H]2O[C@H](C)[C@@H](O)[C@H](N)[C@@H]2O)C[C@@H]2O[C@](O)(C[C@@H](O)C[C@@H](O)[C@H](O)CC[C@@H](O)C[C@@H](O)CC(=O)O[C@H]1C)C[C@H](O)[C@H]2C(=O)O [AMPHOTERICIN B] | – | 0.1 | – |

Next, values leading:

| MIC (Staphylococcus aureus) [µg/mL] | MIC (Candida albicans) [µg/mL] | MIC (Escherichia coli) [µg/mL] | SMILES |
| --- | --- | --- | --- |
| 2.7 | 5.4 | 5.4 | COC(=O)C1=C(C)O[C@](C)(/C=C/CC[C@@H](C)O)C1=O |
| 1.9 | 3.8 | 0.9 | CC/C=C/C=C/[C@@]1(C)OC(c2cc(C(=O)O)sc2C)=C(C(=O)OC)C1=O |
| 2.7 | 5.4 | 5.4 | COC(=O)C1=C(C)O[C@](C)(/C=C/CC[C@H](C)O)C1=O |
| 1.7 | 3.3 | 1.7 | CC/C=C/C=C/[C@@]1(C)OC(c2ccsc2C)=C(C(=O)OC)C1=O |
| 0.1 | – | 2.3 | CN[C@@H]1[C@H](O[C@H]2[C@H](O[C@H]3[C@H](O)[C@@H](O)[C@H](N=C(N)N)[C@@H](O)[C@@H]3N=C(N)N)O[C@@H](C)[C@]2(O)C=O)O[C@@H](CO)[C@H](O)[C@H]1O [STREPTOMYCIN] |
